{
  "source": "patent US9351485B2",
  "about": "“Use of sophorolipids and derivatives thereof in combination with pesticides as adjuvant/additive for plant protection and the industrial non-crop field” (EVONIK DEGUSSA GMBH, priority 2009, dated 2016)",
  "system": "mildew fungus Blumeria graminis f. sp. hordei (race A6)",
  "test": "Protective fungicide glasshouse trial on barley (mildew)",
  "format": "in vivo",
  "settings": "Table 6; Sulfur 250 g/ha, no adjuvant; 10 days after application",
  "description": "The plants (barley) were cultivated under glass in exactly the same way as in the curative trial. For the protective trials, however, the plants were sprayed at about three weeks old with spray solutions containing the active fungicidal ingredient sulfur (Microthiol WG 80% sulfur from Stähler), either alone or in combination with adjuvants/additives. Furthermore, in order to test for synergy, the adjuvant was applied in the spray solution alone, in other words without sulfur. The sulfur dose was 1000 ppm/l, while the adjuvants were used in different doses (for doses see results tables). The amount of spray solution was 250 l/ha, and so the adjuvant concentration in the spray solution was not more than 0.1%; the sulfur dose was 250 g/ha. […]\nThe activity of the adjuvant alone, of the pesticide alone (i.e., of the fungicides or herbicides), and of the pesticide/adjuvant combination was calculated, in a manner known to the skilled person, in comparison to an untreated control sample, which was nevertheless inoculated with the mildew fungus, and expressed in % control of the disease.",
  "data": [
    {"smiles": "S1SSSSSSS1", "note": "[Sulfur, sulfur]", "values": [
      {"measurement": "Efficacy (%)", "value": 46, "unit": "%"}
    ]}
  ]
}
